According to US20100041891A1, “AMIDE COMPOUND” (Takeda Pharmaceutical Company Limited, priority 2008, published 2010):

Tests used:
human GPR52 = target: T1, human GPR52 (Homo sapiens, UniProt Q9Y2T5); assay: Increased intracellular cAMP levels in human GPR52 expression CHO cells; format: cell-based; details: 1 μM test compound, 30 min at 37° C., human GPR52 expression CHO (dhfr-) cells; 100% = cAMP level with 1 μM Reference Example 136, 0% = DMSO
T1 construct: expressed in transfected cells; host or cells: CHO (dhfr-) cells
Procedure: Increased intracellular cAMP levels in human GPR52 expression CHO cells 1×10^4 human GPR52 expression CHO (dhfr-) cells were incubated with 1 μM test compound for 30 min at 37° C. in 30 μL assay buffer (HBSS (containing Ca^2+ and Mg^2+), 0.5% BSA, 100 μM IBMX, 100 μM Ro 20-1724, 5 mM HEPES (pH 7.55)) using an OptiPlate-384 (by PerkinElmer). The intracellular cAMP level was then assayed with an EnVision (by PerkinElmer) according to the protocol of the AlphaScreen cAMP Assay Kit (by PerkinElmer). The GPR52 agonist activity was calculated, assuming the intracellular cAMP level in the presence of 1 μM of 3-(6-(2-(3,4-dimethoxyphenyl)ethoxy)pyridine-2-yl)-N-(2-pyrrolidin-1-ylethyl)benzamide (Reference Example 136) to be 100% and assuming the intracellular cAMP level when DMSO was added instead of test compound to be 0%.

[1] = tested on: methamphetamine-induced locomotor hyperactivity in mice; assay: Inhibition of methamphetamine-induced locomotor hyperactivity; format: in vivo; details: male ICR mice, test compound 30 mg/kg orally, 60 min later methamphetamine 2 mg/kg subcutaneous, locomotor activity 90 min after methamphetamine, versus vehicle group
Procedure: Compounds of the present invention can be evaluated by assessing the inhibition of methamphetamine-induced locomotor hyperactivity in mice. The method of Okuyama et al was modified to test the inhibition of methamphetamine-induced locomotor hyperactivity (Life Science, Vol. 65, pages 2109-2125 (1999)).
Locomotor activity was measured using a 32-channel locomotor activity measurement device MDC-LT (by BrainScience Idea Co., Ltd.), which emits infrared beams from the top of a cage (30×40×20 cm). 6- to 8-week old male ICR mice were acclimated for at least 45 min in the measurement cages, and then either test compound (30 mg/kg) dissolved in vehicle (0.5% methylcellulose aqueous solution) or the vehicle alone were orally administered. This oral administration was followed 60 min later by subcutaneous administration of methamphetamine (2 mg/kg).
90 min after administration of methamphetamine, the number of times the laboratory animals passed through the infrared beams emitted inside the measurement cages was measured to quantify locomotor activity. The following equation was used to calculate the rate at which methamphetamine-induced locomotor hyperactivity was inhibited (activity inhibition rate (%)).
Activity inhibition rate (%)={1−(locomotor activity after treatment with methamphetamine in test compound treatment group÷locomotor activity after treatment with methamphetamine in vehicle treatment group)}×100

T1 sequence (Q9Y2T5 whole entry): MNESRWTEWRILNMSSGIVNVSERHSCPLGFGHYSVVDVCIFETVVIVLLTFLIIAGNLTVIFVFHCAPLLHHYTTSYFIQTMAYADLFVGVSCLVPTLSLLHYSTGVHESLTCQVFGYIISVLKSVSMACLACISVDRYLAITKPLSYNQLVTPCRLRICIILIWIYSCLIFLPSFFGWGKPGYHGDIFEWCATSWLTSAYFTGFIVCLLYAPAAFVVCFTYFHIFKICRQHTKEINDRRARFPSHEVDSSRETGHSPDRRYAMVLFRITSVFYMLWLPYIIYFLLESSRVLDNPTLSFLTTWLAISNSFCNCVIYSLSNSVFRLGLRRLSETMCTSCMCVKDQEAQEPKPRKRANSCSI

SMILES | GPR52 agonist activity (%) (human GPR52) | Activity Inhibition Rate (%) [1] [%] | melting point [°C]
O=C(NCCO)c1cccc(-c2cccc3oc(Cc4cccc(C(F)(F)F)c4)cc23)c1 [Working Example 7, N-(2-Hydroxyethyl)-3-[2-[3-(trifluoromethyl)benzyl]-1-benzofuran-4-yl]benzamide] | 82 | 89 | 
N#CCCNC(=O)c1ccnc(-c2cccc3oc(Cc4cccc(C(F)(F)F)c4)cc23)c1 [Working Example 21, N-(2-Cyanoethyl)-2-[2-[3-(trifluoromethyl)benzyl]-1-benzofuran-4-yl]isonicotinamide] | 74 |  | 
N#CCCNC(=O)c1cccc(-c2nccc3oc(Cc4cccc(C(F)(F)F)c4)cc23)c1 [Working Example 23, N-(2-Cyanoethyl)-3-[2-[3-(trifluoromethyl)benzyl]furo[3,2-c]pyridin-4-yl]benzamide] | 75 |  | 
N#CCCNC(=O)c1cccc(-c2cccc3nn(Cc4ccc(F)c(Cl)c4)cc23)c1 [Working Example 65, 3-[2-(3-Chloro-4-fluorobenzyl)-2H-indazol-4-yl]-N-(2-cyanoethyl)benzamide] | 75 |  | 
Cn1c(Cc2cccc(C(F)(F)F)c2)nc2c(-c3cccc(C(=O)NCCC#N)c3)cccc21 [Working Example 88, N-(2-Cyanoethyl)-3-[1-methyl-2-[3-(trifluoromethyl)benzyl]-1H-benzimidazol-4-yl]benzamide] | 59 | 37 | 
O=C(NCCO)c1cccc(-c2cccn3c(=O)n(Cc4cccc(C(F)(F)F)c4)nc23)c1 [Working Example 99, N-(2-Hydroxyethyl)-3-[3-oxo-2-[3-(trifluoromethyl)benzyl]-2,3-dihydro[1,2,4]triazolo[4,3-a]pyridin-8-yl]benzamide] | 67 |  | 
COCCNC(=O)c1cccc(-c2ccc(F)c3cc(Cc4cccc(S(C)(=O)=O)c4)sc23)c1 [Working Example 159, 3-[4-Fluoro-2-[3-(methylsulfonyl)benzyl]-1-benzothiophen-7-yl]-N-(2-methoxyethyl)benzamide] | 80 |  | 
NC(=O)CNC(=O)c1cccc(-c2cccc3sc(Cc4cccc(C(F)(F)F)c4)cc23)c1 [Working Example 165, N-(2-Amino-2-oxoethyl)-3-[2-[3-(trifluoromethyl)benzyl]-1-benzothiophen-4-yl]benzamide] | 108 |  | 
NC(=O)CNC(=O)c1cccc(-c2cccc3cc(Cc4ccc(F)c(Cl)c4)sc23)c1 [Working Example 174, N-(2-Amino-2-oxoethyl)-3-[2-(3-chloro-4-fluorobenzyl)-1-benzothiophen-7-yl]benzamide] | 90 |  | 
COCCNC(=O)c1cccc(-c2cccc3cc(Cc4cc(F)cc(Cl)c4)sc23)c1 [Working Example 179, 3-[2-(3-Chloro-5-fluorobenzyl)-1-benzothiophen-7-yl]-N-(2-methoxyethyl)benzamide] | 89 |  | 
NC(=O)c1cccc(-c2cccc3cc(COc4cccc(C(F)(F)F)c4)sc23)c1 [Working Example 184, 3-(2-[[3-(Trifluoromethyl)phenoxy]methyl]-1-benzothiophen-7-yl]benzamide] | 82 |  | 
Cc1c(Cc2cccc(C(F)(F)F)c2)sc2c(-c3cccc(C(=O)NCCO)c3)cccc12 [Working Example 191, N-(2-Hydroxyethyl)-3-[3-methyl-2-[3-(trifluoromethyl)benzyl]-1-benzothiophen-7-yl]benzamide] | 94 | 65 | 
O=C(NCCO)c1ccnc(-c2cccc3cc(Cc4cccc(C(F)(F)F)c4)sc23)c1 [Working Example 198, N-(2-Hydroxyethyl)-2-[2-[3-(trifluoromethyl)benzyl]-1-benzothiophen-7-yl]pyridine-4-carboxamide] | 88 | 45 | 
NC(=O)CNC(=O)c1cncc(-c2cccc3cc(Cc4cc(F)cc(Cl)c4)sc23)c1 [Working Example 221, N-(2-Amino-2-oxoethyl)-5-[2-(3-chloro-5-fluorobenzyl)-1-benzothiophen-7-yl]pyridine-3-carboxamide] | 81 |  | 
O=C(NCCO)c1cccc(-c2cccc3cc(Cc4cc(F)cc(Cl)c4)sc23)n1 [Working Example 222, 6-[2-(3-Chloro-5-fluorobenzyl)-1-benzothiophen-7-yl]-N-(2-hydroxyethyl)pyridine-2-carboxamide] | 62 |  | 
NC(=O)CNC(=O)c1cccc(-c2ccc(F)c3cc(Cc4cccc(C(F)(F)F)c4)sc23)c1 [Working Example 230, N-(2-Amino-2-oxoethyl)-3-[4-fluoro-2-[3-(trifluoromethyl)benzyl]-1-benzothiophen-7-yl]benzamide] | 85 | 58 | 
NC(=O)CNC(=O)c1cccc(-c2cccc3sc(Cc4cccc(C(F)(F)F)c4)nc23)c1 [Working Example 252, N-(2-Amino-2-oxoethyl)-3-[2-[3-(trifluoromethyl)benzyl]-1,3-benzothiazol-4-yl]benzamide] | 80 |  | 
O=C(NCCO)c1cccc(-c2ccnc3cc(Cc4cccc(C(F)(F)F)c4)sc23)c1 [Working Example 265, N-(2-hydroxyethyl)-3-[2-[3-(trifluoromethyl)benzyl]thieno[3,2-b]pyridin-7-yl]benzamide] | 93 |  | 
O=C(NCCO)c1cc(F)cc(-c2ccc(F)c3cc(Cc4cccc(C(F)(F)F)c4)sc23)c1 [Working Example 271, 3-Fluoro-5-[4-fluoro-2-[3-(trifluoromethyl)benzyl]-1-benzothiophen-7-yl]-N-(2-hydroxyethyl)benzamide] | 94 |  | 
CC(C)n1cc(Cc2cc3cccc(-c4cccc(C(=O)NCCO)c4)c3s2)ccc1=O [Working Example 292, N-(2-Hydroxyethyl)-3-[2-[[1-(1-methylethyl)-6-oxo-1,6-dihydropyridin-3-yl]methyl]-1-benzothiophen-7-yl]benzamide] | 61 |  | 
O=C(O)CNC(=O)c1cccc(-c2cccc3oc(Cc4cccc(C(F)(F)F)c4)cc23)c1 [Working Example 303, N-[(3-[2-[3-(Trifluoromethyl)benzyl]-1-benzofuran-4-yl]phenyl)carbonyl]glycine] |  |  | 89 to 94
O=C1NCc2c1cccc2-c1cccc2cc(Cc3cccc(C(F)(F)F)c3)sc12 [Working Example 326, 4-[2-[3-(Trifluoromethyl)benzyl]-1-benzothiophen-7-yl]-2,3-dihydro-1H-isoindole-1-one] | 92 |  | 
CC(C)OCCNC(=O)c1cccc(-c2cccc3cc(Cc4cc(F)cc(Cl)c4)sc23)c1 [Working Example 360, 3-[2-(3-Chloro-5-fluorobenzyl)-1-benzothiophen-7-yl]-N-[2-(1-methylethoxy)ethyl]benzamide] | 79 | 41 | 
NC(=O)CNC(=O)c1cccc(-c2cccc3c(F)c(Cc4cccc(C(F)(F)F)c4)sc23)c1 [Working Example 405, N-(2-Amino-2-oxoethyl)-3-[3-fluoro-2-[3-(trifluoromethyl)benzyl]-1-benzothiophen-7-yl]benzamide] | 113 |  | 
O=C(NCCO)c1cccc(-c2cncc3cc(Cc4cccc(C(F)(F)F)c4)oc23)c1 [Working Example 413, N-(2-Hydroxyethyl)-3-[2-[3-(trifluoromethyl)benzyl]furo[3,2-c]pyridin-7-yl]benzamide] | 83 |  | 
